The target of this experiment is T1, MSUT2 ZF (Homo sapiens, UniProt Q6PJT7).
T1 construct: Targeted construct consisted of the c-terminal end (dark blue and amino acids 601-736) of MSUT2; made in house; host or cells: E. coli BL21 (DE3)
T1 sequence (Q6PJT7 601-736): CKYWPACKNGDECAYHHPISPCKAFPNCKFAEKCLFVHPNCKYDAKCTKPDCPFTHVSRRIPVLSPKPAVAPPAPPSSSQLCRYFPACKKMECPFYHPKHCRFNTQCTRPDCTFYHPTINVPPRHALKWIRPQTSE
As to the kind of experiment: Fluorescence polarization assay of FAM-poly(A) RNA:MSUT2 ZF binding. As to conditions: by FP assay; read-out: Ki for MSUT2 by FP assay. How it is done: Fluorescence Polarization Assay. […] 2 μL of compound was transferred for a final concentration of 10 μM. […] Fluorescence polarization was calculated by first subtracting background from a buffer-only control well and then using the equation
Results and Discussion. A high-throughput fluorescence polarization assay for inhibition of poly(A):MSUT2 RNA interaction. […] In order to screen potential inhibitors of MSUT2 RBP and RNA by FP, fluorescent FAM (fluorescein amidite)-labeled poly(A)15 RNA (FAM-RNA) and recombinant MSUT2 ZF (zinc finger) protein expressing constructs were generated (FIG. 7a). […] Inhibition of the interaction results in unbound FAM-RNA tumbling at a relatively rapid rate and emitting non-polarized light (FIG. 7b).
To determine the concentrations of both MSUT2 ZF protein and FAM-RNA probe useful in the methods described herein, a two dimensional titration of protein and RNA concentrations in 96-well format was performed. […] Next, the binding constant between MSUT2 ZF and FAM-RNA was determined by holding FAM-RNA constant at 10 nM while increasing MSUT2 ZF concentration.
Identification and validation of MSUT2 inhibitory compounds from NIHCC library. […] IC50 of each of the previous 8 compounds was determined for PABPN1 using fluorescence polarization (FIG. 11), and a specificity ratio determined (Table 3). An Alpha Screen (AS) assay was developed as an orthogonal screen. Briefly, in this screen, biotinylated RNA binds streptavidin-coated donor beads, while GST-MSUT2 ZF binds glutathione-coated acceptor beads. When donor beads and acceptor beads are brought within close proximity of one another, laser excitation leads to fluorophore emission of the acceptor bead via excited singlet oxygen activating chemiluminescers in the acceptor beads. […] Toxicity of these compounds in a HEK cell model was determined using a standard Promega Cell Titer Glo assay.
Fluorescence Polarization Assay. […] of stock compound was transferred yielding 10 μM final concentration. […] Fluorescence polarization was calculated by first subtracting background from a buffer-only control well and then using the equation
(In general: Polarisation of emitted light reports the rotation of a fluorescent probe.)

Our source for the Ki values is patent publication US20210386709A1, “COMPOSITIONS AND METHODS FOR SUPPRESSING MSUT2” (United States Government As Represented By The Department …, priority 2020, published 2021).

The Ki is the equilibrium dissociation constant of an inhibitor or competing ligand from its target.

For `O=c1c2ccccc2[se]n1-c1ccccc1` [Ebselen], the Ki was 1.02 µM.
